# Values quoted from earlier work in US7511156B2, “Analogs of Salinosporamide A” (President and Fellows of Harvard College, priority 2004, dated 2009).
# Residues, ends and D or L forms follow the SMILES beside them. *: point of attachment. Cbz = O=C(OCc1ccccc1)*
# Tested on: PC12 cells
# Conditions: Tsubuki et al. 1993
smiles,measurement,value
CC(C)C[C@@H](C=O)NC(=O)[C@H](CC(C)C)NC(=O)[C@H](CC(C)C)NC(=O)OCc1ccccc1 [benzyloxycarbonyl (Z)-Leu-Leu-leucinal] (Cbz-Leu-Leu-Leu-aldehyde),optimal concentration inducing neurite outgrowth,30 nM
